{"source": "patent US20180146647A1", "about": "“MEDETOMIDINE FOR USE IN CONTROLLING PARASITIC CRUSTACEANS ON FISH” (I-Tech AB, priority 2015, published 2018)", "origin": "cited, not measured here", "key": {"[1]": {"tested_on": "cyprid larvae", "conditions": "medetomidine 10 nM; Mol Pharmacol 78:237-248, 2010"}, "[2]": {"tested_on": "α2-adrenoceptor", "conditions": "given to mammals and fish; Sinclair, 2003; Ruuskanen et al., 2005"}, "[3]": {"tested_on": "algae", "conditions": "target protein lacking within algae"}}}
{"smiles": "Cc1cccc(C(C)c2c[nH]cn2)c1C", "note": "(racemic) [Medetomidine, (±) 4-[1-(2,3-Dimethylphenyl)ethyl]-1H-imidazole]", "values": [{"measurement": "kicking of the cyprid larvae", "setting": "[1]", "result": "more than 100 kicks per minute"}, {"measurement": "physiological effect in vertebrates", "setting": "[2]", "result": "sedation and locomotor inhibition"}, {"measurement": "effect on algal growth", "setting": "[3]", "result": "no effect on algal growth"}]}
